These results are taken from patent EP3046573B1, “AMYLIN ANALOGUES” (Zealand Pharma A/S, priority 2013, dated 2015).

Read-outs that look alike come from different tables or passages of the source. Numbered stars: 1 amine (or outer) side, 2 acyl side, 3 side chain; on linkers, the order of the positions; unused ones are H or OH. Bridge positions count the residues as written; N and C are the ends. Square brackets hold non-standard residues; d marks the D form. Peptide text beside a SMILES is read from it. * marks the point of attachment. C20 diacid = O=C(O)CCCCCCCCCCCCCCCCCCC(=O)*; γGlu = O=C(O)[C@H](CCC(=O)[*:2])N[*:1]; NMeY = CN[C@@H](Cc1ccc(O)cc1)C(=O)O; NMeI = CC[C@H](C)[C@H](NC)C(=O)O; Orn = NCCC[C@H](N)C(=O)O; Dab = NCC[C@H](N)C(=O)O; Sar = CNCC(=O)O

In series [1] the target is T1, human calcitonin receptor (hCTR2) (Homo sapiens, UniProt P30988).
T1 construct: expressed in transfected cells
T1 sequence (P30988 25-474): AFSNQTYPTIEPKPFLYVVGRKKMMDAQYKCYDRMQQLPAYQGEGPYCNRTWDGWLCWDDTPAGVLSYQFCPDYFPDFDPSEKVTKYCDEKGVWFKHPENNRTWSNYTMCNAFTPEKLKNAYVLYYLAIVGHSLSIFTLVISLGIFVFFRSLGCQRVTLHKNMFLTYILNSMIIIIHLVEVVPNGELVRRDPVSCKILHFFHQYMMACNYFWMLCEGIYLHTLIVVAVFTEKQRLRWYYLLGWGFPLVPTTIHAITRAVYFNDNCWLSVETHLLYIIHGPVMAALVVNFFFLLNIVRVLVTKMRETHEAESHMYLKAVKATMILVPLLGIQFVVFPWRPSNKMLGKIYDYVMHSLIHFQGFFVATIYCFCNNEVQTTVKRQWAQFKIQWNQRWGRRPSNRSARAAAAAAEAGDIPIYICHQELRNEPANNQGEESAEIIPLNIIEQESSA
As to the kind of experiment: hCTR2 assay: induction of cAMP (AlphaScreen cAMP Assay kit) in COS7 cells expressing hCTR2. The series is classed as cell-based. The method in brief: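 Stable hCTR2 clone in RAMP-naive COS7 cells; peptides titrated in Tyrode buffer (pH 7.4) with 100 µM IBMX, 0.1% casein, 15 min at 37° C. cAMP read by AlphaScreen after lysis; EC50 and efficacy relative to pramlintide from 4PL fit.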

The nature of series [2]: Solubility assessment (turbidity absorbance at 325 nm). The series is classed as physicochemical. The following applies: stock 2 mg/ml diluted 1:1, ambient temperature (typically 25°C), n=1; for Solubility, Acetate buffer pH 4: 100 mM acetate buffer pH 4.0; for Solubility, Acetate buffer pH 5: 100 mM acetate buffer pH 5.0; for Solubility, Histidine buffer pH 6: 100 mM histidine buffer pH 6.0; for Solubility, Histidine buffer pH 7: 100 mM histidine buffer pH 7.0; for Solubility, Phosphate buffer pH 6: 100 mM phosphate buffer pH 6.0; for Solubility, Phosphate buffer pH 7: 100 mM phosphate buffer pH 7.0; for Solubility, Phosphate buffer pH 7.5: 100 mM phosphate buffer pH7.5. Summed up: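 Peptide stock (2 mg/ml, water pH 2.5) diluted 1:1 into 100 mM acetate (pH 4.0, 5.0), histidine (pH 6.0, 7.0) or phosphate (pH 6.0–7.5) buffer; absorbance at 325 nm read at about 25°C, n=1. A325 ≤ 0.02 taken as solubility ≥ 1 mg/ml.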

Where [3] appears, read: cAMP induction in COS7 cells expressing hCTR2, average of a minimum of 3 determinations, read-out: hCTR2 EC50.

What is called EC50 is the concentration giving half of the maximal effect. On to `CC[C@H](C)[C@@H](C(=O)N[C@@H](CC(C)C)C(=O)N[C@@H](CO)C(=O)N[C@@H](CO)C(=O)N[C@H](C(=O)N[C@@H](CC(N)=O)C(=O)N[C@H](C(=O)NCC(=O)N[C@@H](CO)C(=O)N[C@@H](CC(N)=O)C(=O)N[C@H](C(=O)N(C)[C@@H](Cc1ccc(O)cc1)C(N)=O)[C@@H](C)O)C(C)C)[C@@H](C)O)N(C)C(=O)CN(C)C(=O)[C@H](Cc1ccccc1)NC(=O)[C@H](CC(N)=O)NC(=O)[C@H](CC(N)=O)NC(=O)[C@H](CO)NC(=O)[C@H](CO)NC(=O)[C@H](Cc1c[nH]cn1)NC(=O)[C@H](Cc1c[nH]cn1)NC(=O)[C@H](CC(C)C)NC(=O)[C@H](Cc1ccccc1)NC(=O)[C@H](CCC(=O)O)NC(=O)[C@H](C)NC(=O)[C@H](CC(C)C)NC(=O)[C@H](CCCNC(=N)N)NC(=O)[C@H](CCC(N)=O)NC(=O)[C@@H](NC(=O)[C@H](C)NC(=O)[C@@H]1CSSC[C@H](NC(=O)[C@H](CCCNC(=N)N)NC(=O)CC[C@H](NC(=O)CCCCCCCCCCCCCCCCCCC(=O)O)C(=O)O)C(=O)N[C@@H](CC(N)=O)C(=O)N[C@@H]([C@@H](C)O)C(=O)N[C@@H](C)C(=O)N[C@@H]([C@@H](C)O)C(=O)N1)[C@@H](C)O` [Compound 62, [19CD]-isoGlu-RC()NTATC()ATQRLAEFLHHSSNNF-Gly(Me)-Ile(Me)-LSSTNVGSNT-Tyr(Me)-NH2] ({C20 diacid-γGlu}-RCNTATCATQRLAEFLHHSSNNF[Sar][NMeI]LSSTNVGSNT[NMeY]-NH2; disulfide 2-7), for which the EC50 in series [1] (setting [3]) amounted to 0.37 nM. For the same molecule, in series [2], the “Solubility, Acetate buffer pH 4” value is “SS (SS indicates solubility ≥ 1mg/ml)”; the “Solubility, Acetate buffer pH 5” value is given as “II (II indicates solubility ≤ 1 mg/ml)”; the “Solubility, Histidine buffer pH 6” value was “II (II indicates solubility ≤ 1 mg/ml)”; the “Solubility, Histidine buffer pH 7” value was “II (II indicates solubility ≤ 1 mg/ml)”. Besides, in series [2], the “Solubility, Phosphate buffer pH 6” value is “II (II indicates solubility ≤ 1 mg/ml)”; the “Solubility, Phosphate buffer pH 7” value was “II (II indicates solubility ≤ 1 mg/ml)”; the “Solubility, Phosphate buffer pH 7.5” value is “II (II indicates solubility ≤ 1 mg/ml)”.
With `CC[C@H](C)[C@@H](C(=O)N[C@@H](CC(C)C)C(=O)N[C@@H](CO)C(=O)N[C@@H](CO)C(=O)N[C@H](C(=O)N[C@@H](CC(N)=O)C(=O)N[C@H](C(=O)NCC(=O)N[C@@H](CO)C(=O)N[C@@H](CC(N)=O)C(=O)N[C@H](C(=O)N1CCC[C@H]1C(N)=O)[C@@H](C)O)C(C)C)[C@@H](C)O)N(C)C(=O)[C@H](C)NC(=O)CN(C)C(=O)[C@H](Cc1ccccc1)NC(=O)[C@H](CC(N)=O)NC(=O)[C@H](CC(N)=O)NC(=O)[C@H](CO)NC(=O)[C@H](CO)NC(=O)[C@H](Cc1c[nH]cn1)NC(=O)[C@H](Cc1c[nH]cn1)NC(=O)[C@H](CC(C)C)NC(=O)[C@H](Cc1ccccc1)NC(=O)[C@H](CCC(=O)O)NC(=O)[C@H](C)NC(=O)[C@H](CC(C)C)NC(=O)[C@H](CCCNC(=N)N)NC(=O)[C@H](CCC(N)=O)NC(=O)[C@@H](NC(=O)[C@H](C)NC(=O)[C@@H]1CSSC[C@H](NC(=O)[C@H](CCN)NC(=O)CC[C@H](NC(=O)CCCCCCCCCCCCCCCCCCC(=O)O)C(=O)O)C(=O)N[C@@H](CC(N)=O)C(=O)N[C@@H]([C@@H](C)O)C(=O)N[C@@H](C)C(=O)N[C@@H]([C@@H](C)O)C(=O)N1)[C@@H](C)O` [Compound 63, [19CD]-isoGlu-Dab-C()NTATC()ATQRLAEFLHHSSNNF-Gly(Me)-A-Ile(Me)-LSSTNVGSNTP-NH2] ({C20 diacid-γGlu}-[Dab]CNTATCATQRLAEFLHHSSNNF[Sar]A[NMeI]LSSTNVGSNTP-NH2; disulfide 2-7), the EC50 in series [1] turned out to be 0.2 nM. For the same molecule, in series [2], the “Solubility, Acetate buffer pH 4” value is recorded as “SS (SS indicates solubility ≥ 1mg/ml)”; the “Solubility, Acetate buffer pH 5” value is “II (II indicates solubility ≤ 1 mg/ml)”; the “Solubility, Histidine buffer pH 6” value is “SS (SS indicates solubility ≥ 1mg/ml)”; the “Solubility, Histidine buffer pH 7” value was “SS (SS indicates solubility ≥ 1mg/ml)”. Further, in series [2], the “Solubility, Phosphate buffer pH 6” value is on record as “SS (SS indicates solubility ≥ 1mg/ml)”; the “Solubility, Phosphate buffer pH 7” value was “SS (SS indicates solubility ≥ 1mg/ml)”; the “Solubility, Phosphate buffer pH 7.5” value was “SS (SS indicates solubility ≥ 1mg/ml)”.
Take `CC[C@H](C)[C@@H](C(=O)N[C@@H](CC(C)C)C(=O)N[C@@H](CO)C(=O)N[C@@H](CO)C(=O)N[C@H](C(=O)N[C@@H](CC(N)=O)C(=O)N[C@H](C(=O)NCC(=O)N[C@@H](CO)C(=O)N[C@@H](CC(N)=O)C(=O)N[C@H](C(=O)N1CCC[C@H]1C(N)=O)[C@@H](C)O)C(C)C)[C@@H](C)O)N(C)C(=O)CN(C)C(=O)[C@H](Cc1ccccc1)NC(=O)[C@H](CC(N)=O)NC(=O)[C@H](CC(N)=O)NC(=O)[C@H](CO)NC(=O)[C@H](CO)NC(=O)[C@H](Cc1c[nH]cn1)NC(=O)[C@H](Cc1c[nH]cn1)NC(=O)[C@H](CC(C)C)NC(=O)[C@H](Cc1ccccc1)NC(=O)[C@H](CCC(=O)O)NC(=O)[C@H](C)NC(=O)[C@H](CC(C)C)NC(=O)[C@H](CCCNC(=N)N)NC(=O)[C@H](CCC(N)=O)NC(=O)[C@@H](NC(=O)[C@H](C)NC(=O)[C@@H]1CSSC[C@H](NC(=O)[C@H](CCN)NC(=O)CC[C@H](NC(=O)CCCCCCCCCCCCCCCCCCC(=O)O)C(=O)O)C(=O)N[C@@H](CC(N)=O)C(=O)N[C@@H]([C@@H](C)O)C(=O)N[C@@H](C)C(=O)N[C@@H]([C@@H](C)O)C(=O)N1)[C@@H](C)O` [Compound 64, [19CD]-isoGlu-Dab-C()NTATC()ATQRLAEFLHHSSNNF-Gly(Me)-Ile(Me)-LSSTNVGSNTP-NH2] ({C20 diacid-γGlu}-[Dab]CNTATCATQRLAEFLHHSSNNF[Sar][NMeI]LSSTNVGSNTP-NH2; disulfide 2-7): the EC50 in series [1] (setting [3]) came out at 0.4 nM. Moreover, in series [2], the “Solubility, Acetate buffer pH 4” value is “SS (SS indicates solubility ≥ 1mg/ml)”; the “Solubility, Acetate buffer pH 5” value is “II (II indicates solubility ≤ 1 mg/ml)”; the “Solubility, Histidine buffer pH 6” value is “SS (SS indicates solubility ≥ 1mg/ml)”; the “Solubility, Histidine buffer pH 7” value is on record as “SS (SS indicates solubility ≥ 1mg/ml)”. In addition, in series [2], the “Solubility, Phosphate buffer pH 6” value is “SS (SS indicates solubility ≥ 1mg/ml)”; the “Solubility, Phosphate buffer pH 7” value was “SS (SS indicates solubility ≥ 1mg/ml)”; the “Solubility, Phosphate buffer pH 7.5” value was “SS (SS indicates solubility ≥ 1mg/ml)”.
As to `CC[C@H](C)[C@@H](C(=O)N[C@@H](CC(C)C)C(=O)N[C@@H](CO)C(=O)N[C@@H](CO)C(=O)N[C@H](C(=O)N[C@@H](CC(N)=O)C(=O)N[C@H](C(=O)NCC(=O)N[C@@H](CO)C(=O)N[C@@H](CC(N)=O)C(=O)N[C@H](C(=O)N1CCC[C@H]1C(N)=O)[C@@H](C)O)C(C)C)[C@@H](C)O)N(C)C(=O)CN(C)C(=O)[C@H](Cc1ccccc1)NC(=O)[C@H](CC(N)=O)NC(=O)[C@H](CC(N)=O)NC(=O)[C@H](CO)NC(=O)[C@H](CO)NC(=O)[C@H](Cc1c[nH]cn1)NC(=O)[C@H](Cc1c[nH]cn1)NC(=O)[C@H](CC(C)C)NC(=O)[C@H](Cc1ccccc1)NC(=O)[C@H](CCC(=O)O)NC(=O)[C@H](C)NC(=O)[C@H](CC(C)C)NC(=O)[C@H](CCCNC(=N)N)NC(=O)[C@H](CCC(N)=O)NC(=O)[C@@H](NC(=O)[C@H](C)NC(=O)[C@@H]1CSSC[C@H](NC(=O)[C@H](CCCN)NC(=O)CC[C@H](NC(=O)CCCCCCCCCCCCCCCCCCC(=O)O)C(=O)O)C(=O)N[C@@H](CC(N)=O)C(=O)N[C@@H]([C@@H](C)O)C(=O)N[C@@H](C)C(=O)N[C@@H]([C@@H](C)O)C(=O)N1)[C@@H](C)O` [Compound 66, [19CD]-isoGlu-Orn-C()NTATC()ATQRLAEFLHHSSNNF-Gly(Me)-Ile(Me)-LSSTNVGSNTP-NH2] ({C20 diacid-γGlu}-[Orn]CNTATCATQRLAEFLHHSSNNF[Sar][NMeI]LSSTNVGSNTP-NH2; disulfide 2-7), in series [1] (setting [3]), the EC50 came out at 0.11 nM. In addition, in series [2], the “Solubility, Acetate buffer pH 4” value is recorded as “SS (SS indicates solubility ≥ 1mg/ml)”; the “Solubility, Acetate buffer pH 5” value is “SS (SS indicates solubility ≥ 1mg/ml)”; the “Solubility, Histidine buffer pH 6” value was “SS (SS indicates solubility ≥ 1mg/ml)”; the “Solubility, Histidine buffer pH 7” value was “SS (SS indicates solubility ≥ 1mg/ml)”. Moreover, in series [2], the “Solubility, Phosphate buffer pH 6” value was “SS (SS indicates solubility ≥ 1mg/ml)”; the “Solubility, Phosphate buffer pH 7” value was “SS (SS indicates solubility ≥ 1mg/ml)”; the “Solubility, Phosphate buffer pH 7.5” value is on record as “SS (SS indicates solubility ≥ 1mg/ml)”.
